The text below walks through data of US10537525B2, “Methods and materials for delivering agents to liver tissue” (Mayo Foundation for Medical Education and Research, priority 2015, dated 2020).

Data set [1] can be described thus: Endoscopic ultrasound-guided portal vein injection of irinotecan loaded microbeads vs jugular vein irinotecan: plasma and tissue concentrations (LC/MS). The settings on record: control: unloaded irinotecan 100 mg into jugular vein; for concentration at 1 h: pig, intravenous. It is filed as in vivo, pigs. The method, then:
Irinotecan and SN-38 (active metabolite) concentrations were determined using LC/MS.

Data set [2] in a line: in vivo. Particulars: pig, intravenous, 100 mg.
Description: (§1) The following was performed to assess the use of endoscopic ultrasound-guided portal vein injection of doxorubicin loaded microbeads to achieve increased intrahepatic concentrations of doxorubicin while decreasing systemic doxorubicin exposure.
(§2) Endoscopic ultrasound-guided portal vein injections were administered to 8 anesthetized 35 kg pigs transgastrically using a linear array echoendoscope and a 22 gauge fine-needle aspiration needle. Briefly, an Olympus linear array echoendoscope was inserted perorally to the stomach. The portal vein was identified by location, appearance, and pulse-wave Dopper signature. A 22 gauge fine-needle aspiration needle (Cook Medical) was advanced transgastrically into the portal vein.
(§3) In 4 animals, doxorubicin (100 mg) loaded onto 75-150 micron LC Beads® (Biocompatibles UK LTD) was injected. In 4 animals, saline was injected into the portal vein, and unloaded doxorubicin (100 mg) was injected into the jugular vein. Plasma was collected at baseline and every 15 minutes for one hour. At 1 hour, laparotomy was performed, and liver and heart samples were obtained and frozen. Bone marrow aspirates were obtained at one hour from the right anterior tibia. Doxorubicin concentrations were determined using LC/MS.
The conditions of data set [3]: control: unloaded doxorubicin 100 mg into jugular vein; plasma every 15 min for one hour.
Description: as §1, §2, §3
Data set [4] in a line: in vivo. The settings on record: male, pig, intravenous, 50 mg.
Description: The aim was to determine 7-day safety, toxicity, and drug levels in the survival porcine model of endoscopic ultrasound-guided injections using irinotecan and doxorubicin loaded onto microbeads, as compared with systemic injection.
Sixteen anesthetized 35 kg male pigs were treated with 50 mg of either irinotecan (n=8) or doxorubicin (n=8). […] Within each drug group, half (n=4) were treated with endoscopic ultrasound-guided injections using 75-150 micron LC Beads (Biocompatibles) or endoscopic ultrasound-guided injection of drug not loaded onto microbeads into the IVC, using 22g endoscopic ultrasound needles via a transgastric approach. Each animal received only one drug by one route. Animals were observed twice daily for 7 days for clinical signs of toxicity. Whole blood for cell counts and plasma chemistries were obtained at baseline and at 7 days. […] 7 day drug levels were measured by LC-mass spectometry on plasma, bone marrow, liver and heart.
Setting [5] is: 50 mg, either group (microbeads portal vein or unloaded drug into IVC).

`CCc1c2c(nc3ccc(OC(=O)N4CCC(N5CCCCC5)CC4)cc13)-c1cc3c(c(=O)n1C2)COC(=O)[C@]3(O)CC` [Irinotecan, (S)-4,11-diethyl-3,4,12,14-tetrahydro-4-hydroxy-3,14-dioxo1H-pyrano[3′,4′:6,7]-indolizino[1,2-b]quinolin-9-yl-[1,4′bipiperidine]-1′-carboxylate]: the “Irinotecan level, Peak Plasma” value in data set [1] (plasma every 15 min for one hour) stood at 2762 ng/mL. Also, the concentration at 1 h in data set [1] (bone marrow, at one hour, read-out: Irinotecan level, Bone Marrow) was found to be 1700 ng/mL; in data set [1] (skeletal muscle at 1 hour, read-out: Irinotecan level, Muscle), 1060 ng/g; in data set [1] (liver, at 1 hour, read-out: Irinotecan level, Liver) it was 3690 ng/g. Moreover, where the note is “50 mg, any samples (plasma, bone marrow, liver, heart), microbeads portal vein or unloaded drug into IVC”, the “irinotecan level at 7 days” value is reported as “no detectable”. For the setting “irinotecan 50 mg, any samples (plasma, bone marrow, liver, heart), microbeads portal vein or unloaded drug into IVC”, the “SN-38 (active metabolite of irinotecan) level at 7 days” value is reported as “no detectable”.

Turning to `COc1cccc2c1C(=O)c1c(O)c3c(c(O)c1C2=O)C[C@@](O)(C(=O)CO)C[C@@H]3O[C@H]1C[C@H](N)[C@H](O)[C@H](C)O1` [doxorubicin, (7S,9S)-7-[(2R,4S,5S,6S)-4-amino-5-hydroxy-6-methyloxan-2-yl]oxy-6,9,11-trihydroxy-9-(2-hydroxyacetyl)-4-methoxy-8,10-dihydro-7H-tetracene-5,12-dione], the concentration at 1 h in “in vivo [2]” (bone marrow) was 25 ng/mL; in the data set “in vivo [2]” (heart), 4800 ng/g; in the data set “in vivo [2]” (liver), 6930 ng/g. Moreover, the “Doxorubicin level, Peak Plasma” value in data set [3] was 2041 ng/mL. Moreover, the concentration at 7 days came out at 138 ng/g in the data set “in vivo [4]” (heart) and 151 ng/g in the data set “in vivo [4]” (liver). Besides, the “doxorubicin level in bone marrow at 7 days” value under setting [5] was “no drug was detected”. The “doxorubicin level in plasma at 7 days” value under setting [5] is on record as “no drug was detected”.
